Laboratory results: PubChem BioAssay (NCI)
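The compound was tested at five concentrations on cells cultured in 96-well plates, with a 48-hour exposure period. TGI: concentration producing complete growth inhibition.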

Key:
Experiment in all cases: NCI-60 cell line screen, 48 h
[1] = system: ACHN renal
[2] = system: U251 CNS
[3] = system: MDA-MB-231 breast
[4] = system: MDA-N
[5] = system: OVCAR-8 ovarian
[6] = system: SK-MEL-5 melanoma
[7] = system: OVCAR-3 ovarian
[8] = system: OVCAR-5 ovarian
[9] = system: COLO 205 colon
[10] = system: DU-145 prostate
[11] = system: UACC-62 melanoma
[12] = system: SNB-19 CNS
[13] = system: M14 melanoma
[14] = system: CAKI-1 renal
[15] = system: OVCAR-4 ovarian
[16] = system: RPMI-8226 leukemia
[17] = system: HOP-62 NSCLC
[18] = system: PC-3 prostate
[19] = system: NCI-H522 lung
[20] = system: SF-268 CNS

| SMILES | TGI [1] [µM] | TGI [2] [µM] | TGI [3] [µM] | TGI [4] [µM] | TGI [5] [µM] | TGI [6] [µM] | TGI [7] [µM] | TGI [8] [µM] | TGI [9] [µM] | TGI [10] [µM] | TGI [11] [µM] | TGI [12] [µM] | TGI [13] [µM] | TGI [14] [µM] | TGI [15] [µM] | TGI [16] [µM] | TGI [17] [µM] | TGI [18] [µM] | TGI [19] [µM] | TGI [20] [µM] |
| --- | --- | --- | --- | --- | --- | --- | --- | --- | --- | --- | --- | --- | --- | --- | --- | --- | --- | --- | --- | --- |
| CCC1NC(=O)C1NC(=O)OC (stereo not given) | > 100 | > 100 | > 100 | > 100 | > 100 | > 100 | > 100 | > 100 | > 100 | > 100 | > 100 | > 100 | > 100 | > 100 | > 100 | > 100 | > 100 | > 100 | > 100 |  |
| CCN(CC)CCCNc1nc(=O)[nH]c(C)c1C(=O)Nc1cccc2cc3ccccc3cc12 | > 100 | > 100 | > 100 | > 100 | > 100 | > 100 | > 100 | > 100 | > 100 | > 100 | > 100 | > 100 | > 100 | > 100 | > 100 | > 100 | > 100 | > 100 | > 100 |  |
| O=C(/C=C/c1ccccc1)CCN1CCN(CCC(=O)/C=C/c2ccccc2)CC1 | 29.5 | 30.3 | 17 | 6.79 | 31.4 | 28.7 | 30.7 | 30.5 | 31.1 | 31.5 | 30.2 | 32.6 | 23.9 | 31.9 | 39.3 | > 100 | 43.9 | 34 | 30 | 29.2 |
| O=CC(=C(I)I)c1ccccc1 | 8.8 | 14.5 | 5.57 | 4.81 | 6.95 | 14 | 3.69 | 15.1 | 6.79 | 19.5 | 17.5 | 21.1 | 4.6 | 7.83 | 4.37 | 2.62 | 19.5 | 13.7 | 4.06 | 9.97 |
| O=[N+]([O-])c1ccc(-c2nnc(C34CC5CC(CC(C5)C3)C4)o2)cc1 | > 100 | > 100 | > 100 | > 100 |  | > 100 | > 100 | > 100 | > 100 | > 100 | > 100 | > 100 | > 100 | > 100 | > 100 | > 100 | > 100 | > 100 | > 100 | > 100 |
| COc1ccc2c(C)cc(N/N=C(\C)C=O)nc2c1 | 29.7 | 30.4 | 24 | 28.6 | 25 | 26.7 | 7.59 | 28.2 | 30.6 | 24.7 | 27.3 | 31.6 | 35.2 | 27.8 | 25.5 | 22.9 | 27.1 | 24.2 | 29.6 | 41.1 |
| COC(=O)c1ccccc1CC1Cc2ccc3c(c2C1=O)CCC3 (stereo not given) | > 100 | > 100 | > 100 | > 100 | > 100 | 62.3 | > 100 | > 100 | > 100 | > 100 | > 100 | > 100 | > 100 | > 100 | > 100 | > 100 | > 100 | > 100 | 88 | > 100 |
| COc1cccc(-c2c(C#N)c(N)nc3c2CCS(=O)(=O)c2ccc(C)cc2-3)c1 | > 100 | > 100 | > 100 | > 100 | > 100 | > 100 | > 100 | > 100 | > 100 | > 100 | > 100 | > 100 | > 100 | > 100 | > 100 | > 100 | > 100 | > 100 | > 100 | > 100 |
| CCN(CC)CCC(=O)c1ccc(Oc2ccc(Cl)cc2)cc1 | 25.8 | 33.1 | 29.2 | 29.6 | 44.9 | 31.2 | 28.6 | 29.9 | 45.1 | 47.8 | 35.2 | > 100 | 28.3 | 37.9 | 36.1 | 16.3 | 24.1 | 28.3 | 38 | 34.5 |
| Cc1nc2cccc(F)c2c(=O)n1C1CCCCNC1=O (stereo not given) | > 10 | > 10 | > 10 | > 10 | > 10 | > 10 | > 10 | > 10 | > 10 | > 10 | > 10 | > 10 | > 10 | > 10 | > 10 | > 10 | > 10 | > 10 | > 10 | > 10 |
| O=[N+]([O-])c1ccc(-c2csc3nc(-c4ccccc4)nn23)cc1 | > 100 | > 100 | > 100 | > 100 | > 100 | > 100 | > 100 | > 100 | > 100 | > 100 | > 100 | > 100 | > 100 | > 100 | > 100 | > 100 | > 100 | > 100 | > 100 | > 100 |
| N=c1oc2c(Cl)cc(Cl)cc2cc1C(=O)Nc1cccc2ccccc12 | 11.2 | 7.01 | 11.3 | > 100 | 14.2 | > 100 | > 40 | > 100 | > 32.7 | > 100 | > 100 | > 78.2 | > 100 | > 67.7 | 6.37 | 53.3 | 42.3 | > 100 | > 100 | > 100 |
| COc1ccc(/C=C2\NC(=S)N(CN3CCCCC3)C2=O)cc1 | > 100 | > 100 | > 100 | > 100 | 50 | > 100 | > 100 | > 100 | 85.6 | > 100 | > 100 | > 100 | > 100 |  | 78.8 | > 100 | > 100 | > 100 | > 100 | 50.4 |
| COC(=O)C1=CC2CCCC1(O)C(C(C)=O)C2 (stereo not given) | > 100 | > 100 | > 100 | > 100 | > 79.5 | > 100 | > 100 | > 100 | > 100 | > 100 | > 100 | > 100 | > 100 | > 100 | > 100 | 69.6 | > 100 | > 100 | 31.7 | > 67.3 |
| O=c1c2nn3c(=O)n(-c4ccccc4)c(=O)c3nn2c(=O)n1-c1ccccc1 | > 100 | > 100 | > 100 | > 100 | > 100 | > 100 | > 100 | > 100 | > 100 | > 100 | > 100 | > 100 | > 100 | > 100 | > 100 | > 100 | > 100 | > 100 | > 100 | > 100 |
| COc1ccc2nc(-n3c(/C=C/c4ccccc4O)nc4ccccc4c3=O)sc2c1 | > 100 | > 100 | > 100 | 36.5 | > 100 | 66.2 | > 100 | > 100 | > 100 | > 100 | > 100 | > 100 | > 100 | > 100 | > 100 | 80.8 | > 100 | > 100 | > 100 | > 100 |
| CCC1C(C#N)=C(N)OC2=C1C(=O)CC(C)(C)C2 (stereo not given) | > 100 | > 100 | > 100 | > 100 | > 100 | > 100 | > 100 | > 100 | > 100 | > 100 | > 100 | > 100 | > 100 | > 100 | > 100 | > 100 | > 100 | > 100 | > 100 | > 100 |
| COC12OC3(C4OC41)C(C(=O)O[C@H]3CO[Si](C)(C)C(C)(C)C)C2C(=O)Oc1ccccc1 (stereo not given in full) | > 100 | > 100 | > 100 | > 100 | > 100 | > 100 | > 100 | > 100 | > 100 | > 100 | > 100 | > 100 | > 100 | > 100 | > 100 | > 100 | > 100 | > 100 | > 100 | > 100 |
| O=C(C1OC1c1ccc(O)cc1)C12CC3CC(CC(C3)C1)C2 (stereo not given) | > 94.5 | > 100 | > 100 | > 75 | > 100 | > 100 | > 64.8 | > 100 | > 76.9 | > 100 | > 100 | > 100 | > 100 | > 66.1 | > 100 | > 73 | > 100 | > 100 | 24.7 | > 100 |
| c1ccc([P+](Cc2ccc(C[P+](c3ccccc3)(c3ccccc3)c3ccccc3)cc2)(c2ccccc2)c2ccccc2)cc1 | > 100 | > 100 | > 100 | > 100 | > 100 | 90.1 | > 100 | > 100 | > 100 | > 100 | > 100 | > 100 | > 100 | > 100 | > 100 | > 100 | > 100 | > 100 | > 100 | > 100 |
| O=C1C=C2C(=NC34CCCCC3C(c3ccccc3)C3=C(c5ccccc5CC3)N24)c2ccccc21 (stereo not given) | > 10 | > 10 | > 10 | > 10 | > 10 | > 10 | > 10 | > 10 | > 10 | > 10 | > 10 | > 10 | > 10 | > 10 | > 10 | > 10 | > 10 | > 10 | > 10 | > 10 |
| CCOC(CN=C=S)OCC | > 10 | > 10 | > 10 | > 10 | > 10 | > 10 | > 10 |  | > 10 | > 10 | > 10 | > 10 | > 10 | > 10 | > 10 | > 10 | > 10 | > 10 | > 10 | > 10 |
| NC(=O)c1cc2cc(Cl)cc(Cl)c2oc1=Nc1ccc(F)cc1 | 41.8 | 41.2 | 35.6 | 66.5 | > 100 | 31.7 | 52.9 | 54.6 | 40.6 | 41.8 | 63.7 | 42.3 | 45.5 | 38 | 70.6 | 61.7 | > 100 | 44.3 | 38.1 | > 100 |
| CC1CNc2ccccc2N=C1NN (stereo not given) | > 100 | > 100 | > 100 | > 100 | > 100 | > 100 | > 100 | > 100 | > 100 | > 100 | > 100 | > 100 | > 100 | > 100 | > 100 | > 100 | > 100 | > 100 | > 100 | > 100 |
